Earlier results in publication PMC9516332 (Frontiers in Oncology, 2022).
Read-outs that look alike come from different tables or passages of the source.

Key:
Conditions in all cases: cited from earlier work
[1] = biological target: T1, panel of 255 wild-type kinases (Homo sapiens, UniProt Q9UQB9)
T1 sequence (Q9UQB9 1-309): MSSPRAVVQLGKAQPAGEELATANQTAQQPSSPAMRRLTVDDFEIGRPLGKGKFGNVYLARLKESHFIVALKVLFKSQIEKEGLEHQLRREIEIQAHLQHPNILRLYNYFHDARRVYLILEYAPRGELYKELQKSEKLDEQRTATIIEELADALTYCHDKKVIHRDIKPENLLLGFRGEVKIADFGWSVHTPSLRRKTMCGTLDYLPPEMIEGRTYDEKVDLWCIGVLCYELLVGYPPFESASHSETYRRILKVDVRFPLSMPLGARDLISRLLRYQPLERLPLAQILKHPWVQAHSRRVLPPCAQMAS

[2] = biological target: T2, panel of 255 wild-type kinases (Homo sapiens, UniProt O15264)
T2 sequence (O15264 1-365): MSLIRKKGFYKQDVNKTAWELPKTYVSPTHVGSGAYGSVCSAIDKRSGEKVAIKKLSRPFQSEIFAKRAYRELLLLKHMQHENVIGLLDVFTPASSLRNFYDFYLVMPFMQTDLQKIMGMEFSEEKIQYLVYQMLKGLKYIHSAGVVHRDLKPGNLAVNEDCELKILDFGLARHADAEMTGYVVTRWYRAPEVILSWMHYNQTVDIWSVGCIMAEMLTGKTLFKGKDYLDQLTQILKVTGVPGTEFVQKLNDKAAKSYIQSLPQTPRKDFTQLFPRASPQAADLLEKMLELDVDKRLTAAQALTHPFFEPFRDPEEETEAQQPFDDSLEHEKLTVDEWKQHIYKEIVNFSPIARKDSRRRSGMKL

[3] = biological target: T3, panel of 255 wild-type kinases (Homo sapiens, UniProt Q96KB5)
T3 sequence (Q96KB5 1-322): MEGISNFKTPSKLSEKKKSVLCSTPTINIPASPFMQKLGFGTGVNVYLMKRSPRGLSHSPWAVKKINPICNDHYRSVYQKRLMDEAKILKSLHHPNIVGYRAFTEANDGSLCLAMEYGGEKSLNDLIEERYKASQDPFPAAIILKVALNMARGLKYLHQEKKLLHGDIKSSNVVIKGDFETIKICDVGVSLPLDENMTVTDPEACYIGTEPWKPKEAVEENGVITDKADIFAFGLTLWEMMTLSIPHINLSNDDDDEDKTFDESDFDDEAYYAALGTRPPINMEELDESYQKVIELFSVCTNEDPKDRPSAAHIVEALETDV

[4] = biological target: panel of 255 wild-type kinases (Homo sapiens, UniProt Q13164)
[5] = biological target: T4, panel of 255 wild-type kinases (Homo sapiens, UniProt Q8IWQ3)
T4 sequence (Q8IWQ3 1-736): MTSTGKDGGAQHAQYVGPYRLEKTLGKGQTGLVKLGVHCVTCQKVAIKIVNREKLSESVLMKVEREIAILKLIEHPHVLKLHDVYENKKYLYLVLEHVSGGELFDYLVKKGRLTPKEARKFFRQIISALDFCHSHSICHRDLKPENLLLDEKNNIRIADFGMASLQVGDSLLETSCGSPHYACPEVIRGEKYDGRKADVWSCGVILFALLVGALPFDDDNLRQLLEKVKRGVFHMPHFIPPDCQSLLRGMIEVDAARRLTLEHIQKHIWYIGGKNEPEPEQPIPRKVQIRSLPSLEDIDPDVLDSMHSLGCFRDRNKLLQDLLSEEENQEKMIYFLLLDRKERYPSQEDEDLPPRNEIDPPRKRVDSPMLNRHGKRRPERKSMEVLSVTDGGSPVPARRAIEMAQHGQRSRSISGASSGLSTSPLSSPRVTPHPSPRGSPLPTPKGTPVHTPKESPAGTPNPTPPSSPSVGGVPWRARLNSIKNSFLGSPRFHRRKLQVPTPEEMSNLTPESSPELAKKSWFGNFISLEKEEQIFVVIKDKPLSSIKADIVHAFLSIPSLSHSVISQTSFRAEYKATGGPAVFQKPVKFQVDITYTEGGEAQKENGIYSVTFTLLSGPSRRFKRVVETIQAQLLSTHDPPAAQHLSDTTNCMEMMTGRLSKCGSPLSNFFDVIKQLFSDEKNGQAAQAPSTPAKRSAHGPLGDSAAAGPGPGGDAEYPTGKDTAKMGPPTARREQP

[6] = biological target: panel of 255 wild-type kinases (Homo sapiens, UniProt Q9P286)
[7] = biological target: panel of 255 wild-type kinases (Homo sapiens, UniProt Q8TDX7)
[8] = biological target: panel of 255 wild-type kinases (Homo sapiens, UniProt O96013)
[9] = AurC kinase assay, 1 µmol/L single concentration, ref DOI: 10.1158/1535-7163.MCT-18-0877
[10] = p38δ, 1 µmol/L single concentration, ref DOI: 10.1158/1535-7163.MCT-18-0877
[11] = kinase PBK, 1 µmol/L single concentration, ref DOI: 10.1158/1535-7163.MCT-18-0877
[12] = kinase Erk5, 1 µmol/L single concentration, ref DOI: 10.1158/1535-7163.MCT-18-0877
[13] = BRSK2 kinase assay, 1 µmol/L single concentration, ref DOI: 10.1158/1535-7163.MCT-18-0877
[14] = PAK5, 1 µmol/L single concentration, ref DOI: 10.1158/1535-7163.MCT-18-0877
[15] = NEK7, 1 µmol/L single concentration, ref DOI: 10.1158/1535-7163.MCT-18-0877
[16] = PAK4, 1 µmol/L single concentration, ref DOI: 10.1158/1535-7163.MCT-18-0877
[17] = AurC kinase assay, 1 µmol/L single concentration, ref DOI: 10.1371/journal.pone.0092146
[18] = p38δ, 1 µmol/L single concentration, ref DOI: 10.1371/journal.pone.0092146
[19] = kinase PBK, 1 µmol/L single concentration, ref DOI: 10.1371/journal.pone.0092146
[20] = kinase Erk5, 1 µmol/L single concentration, ref DOI: 10.1371/journal.pone.0092146
[21] = BRSK2 kinase assay, 1 µmol/L single concentration, ref DOI: 10.1371/journal.pone.0092146
[22] = PAK5, 1 µmol/L single concentration, ref DOI: 10.1371/journal.pone.0092146
[23] = NEK7, 1 µmol/L single concentration, ref DOI: 10.1371/journal.pone.0092146
[24] = PAK4, 1 µmol/L single concentration, ref DOI: 10.1371/journal.pone.0092146

Compound	%-inhibition AurC [1, 9] [%]	%-inhibition, p38δ [2, 10] [%]	%-inhibition at 1 µmol/L, PBK [3, 11] [%]	%-inhibition at 1 µmol/L, Erk5 [4, 12] [%]	%-inhibition BRSK2 [5, 13] [%]	%-inhibition, PAK5 [6, 14] [%]	%-inhibition, NEK7 [7, 15] [%]	%-inhibition, PAK4 [8, 16] [%]	%-inhibition AurC [1, 17] [%]	%-inhibition, p38δ [2, 18] [%]	%-inhibition at 1 µmol/L, PBK [3, 19] [%]	%-inhibition at 1 µmol/L, Erk5 [4, 20] [%]	%-inhibition BRSK2 [5, 21] [%]	%-inhibition, PAK5 [6, 22] [%]	%-inhibition, NEK7 [7, 23] [%]	%-inhibition, PAK4 [8, 24] [%]	further results
O=C(c1ccc(F)c(F)c1Nc1ccc(I)cc1F)N1CC(O)([C@@H]2CCCCN2)C1 [cobimetinib]	-2.68	-6	76	1.71	3	0.678	1.68	2	–	–	–	–	–	–	–	–	–
CC(C)(C)c1nc(-c2cccc(NS(=O)(=O)c3c(F)cccc3F)c2F)c(-c2ccnc(N)n2)s1 [dabrafenib]	–	–	–	–	–	–	–	–	23	-3.43	12	0.144	30	21	2.28	11	–
Cc1cc(Nc2ncc(Cl)c(Nc3ccccc3S(=O)(=O)C(C)C)n2)c(OC(C)C)cc1C1CCNCC1 [ceritinib]	3.47	3	-11	94	24	15	-0.251	13	–	–	–	–	–	–	–	–	–
CCc1cc2c(cc1N1CCC(N3CCOCC3)CC1)C(C)(C)c1[nH]c3cc(C#N)ccc3c1C2=O [alectinib]	2.65	0.128	-2.63	-1.24	-2.35	8	-1.33	6.55	–	–	–	–	–	–	–	–	–
CCCS(=O)(=O)Nc1ccc(F)c(C(=O)c2c[nH]c3ncc(-c4ccc(Cl)cc4)cc23)c1F [vemurafenib]	–	–	–	–	–	–	–	–	13	8	-12	0.709	-6	-1.23	-3.56	-7	–
COc1cc(N2CCC(N3CCN(C)CC3)CC2)ccc1Nc1ncc(Cl)c(Nc2ccccc2P(C)(C)=O)n1 [brigatinib]	–	–	–	–	–	–	–	–	–	–	–	–	–	–	–	–	%-inhibition AurC [1]: 44%; %-inhibition, p38δ [2]: 0.87%; %-inhibition at 1 µmol/L, PBK [3]: 1.09%; %-inhibition at 1 µmol/L, Erk5 [4]: 96%; %-inhibition BRSK2 [5]: 77%; %-inhibition, PAK5 [6]: 82%; %-inhibition, NEK7 [7]: 1.23%; %-inhibition, PAK4 [8]: 45%
CC(=O)Nc1cccc(-n2c(=O)n(C3CC3)c(=O)c3c(Nc4ccc(I)cc4F)n(C)c(=O)c(C)c32)c1 [trametinib]	–	–	–	–	–	–	–	–	1	-2.7	-3.79	-2.55	5.38	-2.62	1.63	-0.675	–
CC#CC(=O)N1CCC[C@H]1c1nc(-c2ccc(C(=O)Nc3ccccn3)cc2)c2c(N)nccn12 [acalabrutinib]	7	-1.74	-15	-2.12	-10	-0.37	-11	-1.65	–	–	–	–	–	–	–	–	–
C=CC(=O)Nc1cc(Nc2nccc(-c3cn(C)c4ccccc34)n2)c(OC)cc1N(C)CCN(C)C [osimertinib]	2.33	-5.38	77	10	-0.439	6	0.703	12	–	–	–	–	–	–	–	–	–
CO[C@@H]1[C@H](N(C)C(=O)c2ccccc2)C[C@H]2O[C@]1(C)n1c3ccccc3c3c4c(c5c6ccccc6n2c5c31)C(=O)NC4 [midostaurin]	100	3.36	-7	-1.27	90	37	-11	30	–	–	–	–	–	–	–	–	–
C=CC(=O)N1CCC[C@@H](n2nc(-c3ccc(Oc4ccccc4)cc3)c3c(N)ncnc32)C1 [ibrutinib]	7	-3.68	-9	4	16	12	0.69	11	–	–	–	–	–	–	–	–	–
C[C@@H](Oc1cc(-c2cnn(C3CCNCC3)c2)cnc1N)c1c(Cl)ccc(F)c1Cl [crizotinib]	–	–	–	–	–	–	–	–	87	-3.41	-14	45	8	7	-5.3	-5.56	–
